Tests used:
Format in all cases: cell-based, human
[1] = test system: cAMP levels in CCRF-CEM cells; assay: cAMP RIA, CCRF-CEM cells; conditions: 30 minutes, 10 μM rolipram, 10 μM forskolin, 1 μM hydrocortisone, three experiments
Protocol: (§1) Leukemic cells from six B-CLL patients or CCRF-CEM cells were incubated for 30 minutes with media alone (CT), 10 μM rolipram (Roli), 10 μM forskolin (Fsk), 1 μM hydrocortisone (HC), or the same concentration of hydrocortisone combined with rolipram (Roli/HC) or forskolin (Fsk/HC). Lysates of the cells were then assayed for cAMP using a RIA. The cAMP level obtained from each treated B-CLL sample was normalized to that observed in the untreated leukemic cells. The CCRF-CEM data shown are representative of three experiments performed.
(§2) 500,000 B-CLL or CCRF-CEM cells were incubated for 30 minutes in one mL media alone or with the addition of drugs. Cells were centrifuged and lysed in 80% ethanol. After vortexing and incubation on ice for 10 minutes, cellular debris was removed by re-centrifugation. The supernatant was dried in a Speedivac and the sample brought up in 250 μL of sample buffer as provided by the makers of a cAMP RIA kit (Amersham). 100 μL of this sample was used for each cAMP assay. The RIA kit was used according to the manufacturer's instructions.

[2] = test system: glucocorticoid-resistant subclone (CEM-R8); assay: MTS cell survival assay, CEM-R8; conditions: dexamethasone-resistant CCRF-CEM cells; 10 μM, 72 hours
Protocol: In FIG. 5A, the polyclonal parental cell line (CCRF-CEM), the single cell-derived glucocorticoid-resistant subclone (CEM-R8) and the single cell-derived glucocorticoid-sensitive subclone (CEM-S2) were cultured for 72 hours in the presence of vehicle (ETOH) or dexamethasone at the concentrations indicated and cell viability was assessed by the MTS assay as described in Methods. In FIG. 5B, the glucocorticoid-resistant subclone (CEM-R8) and the glucocorticoid-sensitive subclone (CEM-S2) were cultured for 72 hours in the presence of hydrocortisone (HC) (10 μM HC for the CEM-R8 cells and 1 μM HC for the CEM-S2 cells), 10 μM forskolin (Fsk), 10 μM rolipram (Rol), or combinations of these agents as indicated, and cell viability was assessed by the MTS assay as described in Methods. FIG. 5C: The glucocorticoid-resistant subclone (CEM-R8) and the glucocorticoid-sensitive subclone (CEM-S2) were cultured for 72 hours in the presence of varying amounts of dibutyryl cAMP (db-cAMP) in the absence (−HC) or presence (+HC) of 1 μM hydrocortisone as indicated, and cell viability was assessed by the MTS assay as described in Methods. […]
Hoechst 33342 and DiOC6(3) apoptosis assays were performed as previously described^22,28. […] The absorbance (O.D.) of the formazan product was determined at 492 nm using a plate reader (Titertek Multiscan Plus, Labsystems). […]

[3] = test system: cAMP levels in B-CLL cells; assay: cAMP RIA, B-CLL cells; conditions: 10 μM rolipram for 30 minutes; six B-CLL patients; p<0.04
Protocol: as §1, §2

[4] = test system: GRE luciferase constructs transiently transfected into B-CLL cells; assay: GRE luciferase transactivation in B-CLL cells
Protocol: B-CLL cells (FIG. 3A) or CCRF-CEM cells (FIG. 3B) were transiently transfected with a luciferase construct in which expression is regulated by GRE elements, followed by culture in 10 μM rolipram (R), 40 μM forskolin (Fsk), 1 μM hydrocortisone (HC), 1 mM Rp-8Br-cAMPS (Rp-8Br) or combinations of these agents. 12 hours after addition of the drugs, the relative luminescence of the samples was determined. The data shown are the mean of 8 experiments for B-CLL and two experiments for CCRF-CEM cells. The single asterisk denote a significant difference by paired student's t test between HC alone and either R/HC (FIG. 3A) or F/HC (FIG. 3B) (p<0.02). The double asterisk denotes a significant difference between Rp-8Br-cAMPS/HC and HC alone (p<0.02).
An MMTV GRE luciferase construct, originally created by Dr. R. Evans, was a gift from Dr. Remco Spanjaard (Dept. of Otolaryngology, Boston Medical Center)^29. 100 million B CLL cells in 200 μl of PBS were added to 500 μl of Nucleofector Solution D containing 30 μg of endotoxin-free (Qiagen) MMTV luciferase constructs. 100 μl was used per transfection using a Nucleofector electroporation instrument (Amaxa Biosystems, Koeln, Germany) using program U16. […] Up to six such aliquots of transfected cells were diluted in media and pooled, prior to distribution of 8 million cells/well in 48 well plates. Two hours after transfection, drugs, cytokines or vehicle alone were added to the transfected cells. 14 hours after transfection, samples were processed using a luciferase assay kit (Promega). Triplicate samples were analyzed with an MGM Instruments Optocomp I luminometer (Hamden, Conn.). Analysis of cell viability (trypan blue exclusion) and total protein (Pierce) verified that equivalent numbers of viable B-CLL cells were analyzed. 100 million CCRF-CEM cells were similarly transfected, cultured and analyzed except that Nucleofector program O17 was utilized. […] Data were analyzed using a two-sided paired t test for means.

With `COc1ccc(C2CNC(=O)C2)cc1OC1CCCC1` (centres unmarked) [rolipram, 4-(3-cyclopentyloxy-4-methoxyphenyl)-2-pyrrolidone] the “effect on cAMP levels” value [1] was “no effect”, the “effect on cell viability as single agent” value [2] was “no discernable effect” and the “cAMP levels above that observed in untreated cells” value [3] was 2.5±0.7 fold. For the same compound, the “augmentation of hydrocortisone-induced transactivation (average)” value ([4]; 10 μM rolipram + 1 μM hydrocortisone, 5 patients, p<0.02) was 33% and the “augmentation of GRE transactivation by rolipram itself” value ([4]; 10 μM rolipram alone, 7/8 experiments, not statistically significant (p<0.23)) was 10%.
